Test results published in patent publication US11161856B2 (H. Lundbeck A/S, priority 2017, dated 2021).

How the values were obtained:
MGLL = biological target: T1, MGLL (Mus musculus, UniProt O35678); experiment: In vitro competitive activity-based protein profiling, mouse brain proteome (MGLL); format: biochemical; settings: for % Inh MGLL Brain (Mouse, μM): concentration not given (μM)
T1 construct: Brain; from tissue; host or cells: mouse brain proteome
T1 sequence (O35678 1-303): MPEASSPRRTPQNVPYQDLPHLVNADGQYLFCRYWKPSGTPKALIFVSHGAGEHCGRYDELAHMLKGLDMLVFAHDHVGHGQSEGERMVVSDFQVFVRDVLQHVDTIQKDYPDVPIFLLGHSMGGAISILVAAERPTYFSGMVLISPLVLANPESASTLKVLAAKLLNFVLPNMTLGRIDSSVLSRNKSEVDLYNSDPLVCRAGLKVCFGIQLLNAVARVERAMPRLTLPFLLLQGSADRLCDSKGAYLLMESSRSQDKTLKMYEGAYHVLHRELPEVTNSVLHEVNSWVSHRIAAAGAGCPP

ABHD6 = biological target: T2, ABHD6 (Mus musculus, UniProt Q8R2Y0); experiment: In vitro competitive activity-based protein profiling, mouse brain proteome (ABHD6); format: biochemical; settings: mouse brain proteome; for % Inh ABHD6 Brain (Mouse, μM): concentration not given (μM)
T2 construct: Brain; from tissue; host or cells: mouse brain proteome
T2 sequence (Q8R2Y0 1-336): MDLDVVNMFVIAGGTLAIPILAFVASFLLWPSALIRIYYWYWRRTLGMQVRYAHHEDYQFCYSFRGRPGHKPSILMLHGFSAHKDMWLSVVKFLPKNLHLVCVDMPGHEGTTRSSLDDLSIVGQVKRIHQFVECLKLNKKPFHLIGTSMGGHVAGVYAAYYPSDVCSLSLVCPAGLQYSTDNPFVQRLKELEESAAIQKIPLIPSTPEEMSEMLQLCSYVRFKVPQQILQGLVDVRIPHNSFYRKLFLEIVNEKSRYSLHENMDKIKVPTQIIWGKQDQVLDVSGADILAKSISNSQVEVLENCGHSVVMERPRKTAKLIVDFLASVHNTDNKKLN
Method: [The source words this procedure for another target and reports this target under the same test.] In Vitro Competitive Activity-Based Protein Profiling.
Proteomes (human prefrontal cortex or cell membrane fractions) (50 μL, 1.0 mg/mL total protein concentration) were preincubated with varying concentrations of inhibitors at 37° C. After 30 min, FP-Rh or HT-01 (1.0 μL, 50 μM in DMSO) was added and the mixture was incubated for another 30 min at room temperature. Reactions were quenched with SDS loading buffer (15 μL-4×) and run on SDS-PAGE.

% Inh MGLL Brain (Mouse, μM) (MGLL)	% Inh ABHD6 Brain (Mouse, μM) (ABHD6)	inhibition at 10 µM (MGLL; at 10 uM, read-out: % Inh MGLL Brain (Mouse)) [%]	inhibition at 10 µM (ABHD6; at 10 uM, read-out: % Inh ABHD6 Brain (Mouse)) [%]	SMILES
### (### is ≥75%)	# (# is ≤25%)	–	–	CC(=O)N1CC2(CCN(c3ccccc3CN3CCN(C(=O)OC(C(F)(F)F)C(F)(F)F)CC3)C2)C1 [Example 168, 1,1,1,3,3,3-Hexafluoropropan-2-yl 4-(2-(2-acetyl-2,6-diazaspiro[3.4]octan-6-yl)benzyl)piperazine-1-carboxylate]
### (### is ≥75%)	# (# is ≤25%)	–	–	CN1CC2(CCN(c3cc(Cl)ccc3CN3CCN(C(=O)OC(C(F)(F)F)C(F)(F)F)CC3)C2)C1 [Example 169, 1,1,1,3,3,3-Hexafluoropropan-2-yl 4-(4-chloro-2-(2-methyl-2,6-diazaspiro[3.4]octan-6-yl)benzyl)piperazine-1-carboxylate]
### (### is ≥75%)	# (# is ≤25%)	–	–	CCN1CCC2(CCN(c3cc(Cl)ccc3CN3CCN(C(=O)OC(C(F)(F)F)C(F)(F)F)CC3)CC2)C1 [Example 170, 1,1,1,3,3,3-Hexafluoropropan-2-yl 4-(4-chloro-2-(2-ethyl-2,8-diazaspiro[4.5]decan-8-yl)benzyl)piperazine-1-carboxylate]
### (### is ≥75%)	# (# is ≤25%)	–	–	O=C(OC(C(F)(F)F)C(F)(F)F)N1CCC2(CCN(Cc3cccc(Cl)c3N3CCCC3)CC2)C1 [Example 171, 1,1,1,3,3,3-Hexafluoropropan-2-yl 8-(3-chloro-2-(pyrrolidin-1-yl)benzyl)-2,8-diazaspiro[4.5]decane-2-carboxylate]
–	–	> 75	25 to 75	O=C(OC(C(F)(F)F)C(F)(F)F)N1CCC2(CCN(Cc3ccc(Cl)c(N4CCCC4)c3)CC2)C1 [Example 172, 1,1,1,3,3,3-Hexafluoropropan-2-yl 8-(4-chloro-3-(pynolidin-1-yl)benzyl)-2,8-diazaspiro[4.5]decane-2-carboxylate]
### (### is ≥75%)	# (# is ≤25%)	–	–	CCN1CC2(CCN(c3cc(Cl)ccc3CN3CCN(C(=O)OC(C(F)(F)F)C(F)(F)F)CC3)C2)C1 [Example 173, 1,1,1,3,3,3-Hexafluoropropan-2-yl 4-(4-chloro-2-(2-ethyl-2,6-diazaspiro[3.4]octan-6-yl)benzyl)piperazine-1-carboxylate]
### (### is ≥75%)	# (# is ≤25%)	–	–	CS(=O)(=O)N1CCC2(CCN(c3cc(Cl)ccc3CN3CCN(C(=O)OC(C(F)(F)F)C(F)(F)F)CC3)CC2)C1 [Example 174, 1,1,1,3,3,3-Hexafluoropropan-2-yl 4-(4-chloro-2-(2-(methylsulfonyl)-2,8-diazaspiro[4.5]decan-8-yl)benzyl)piperazine-1-carboxylate]
### (### is ≥75%)	# (# is ≤25%)	–	–	CS(=O)(=O)N1CC2(CCN(c3cc(Cl)ccc3CN3CCN(C(=O)OC(C(F)(F)F)C(F)(F)F)CC3)C2)C1 [Example 175, 1,1,1,3,3,3-Hexafluoropropan-2-yl 4-(4-chloro-2-(2-(methylsulfonyl)-2,6-diazaspiro[3.4]octan-6-yl)benzyl)piperazine-1-carboxylate]
### (### is ≥75%)	# (# is ≤25%)	–	–	CC(=O)N1CC2(CCN(c3cc(Cl)ccc3CN3CCN(C(=O)OC(C(F)(F)F)C(F)(F)F)CC3)C2)C1 [Example 176, 1,1,1,3,3,3-Hexafluoropropan-2-yl 4-(2-(2-acetyl-2,6-diazaspiro[3.4]octan-6-yl)-4-chlorobenzyl)piperazine-1-carboxylate]
### (### is ≥75%)	# (# is ≤25%)	–	–	CN1CCC2(CCN(c3cc(Cl)ccc3CN3CCN(C(=O)OC(C(F)(F)F)C(F)(F)F)CC3)CC2)C1 [Example 177, 1,1,1,3,3,3-Hexafluoropropan-2-yl 4-(4-chloro-2-(2-methyl-2,8-diazaspiro[4.5]decan-8-yl)benzyl)piperazine-1-carboxylate]
### (### is ≥75%)	# (# is ≤25%)	–	–	CC(=O)N1CCC2(CCN(c3cc(Cl)ccc3CN3CCN(C(=O)OC(C(F)(F)F)C(F)(F)F)CC3)CC2)C1 [Example 178, 1,1,1,3,3,3-Hexafluoropropan-2-yl 4-(2-(2-acetyl-2,8-diazaspiro[4.5]decan-8-yl)-4-chlorobenzyl)piperazine-1-carboxylate]

Second part, the compound before the results:

SMILES	% Inh MGLL Brain (Mouse, μM) (MGLL)	% Inh ABHD6 Brain (Mouse, μM) (ABHD6)	inhibition at 10 µM (MGLL; at 10 uM, read-out: % Inh MGLL Brain (Mouse)) [%]	inhibition at 10 µM (ABHD6; at 10 uM, read-out: % Inh ABHD6 Brain (Mouse)) [%]
O=C(OC(C(F)(F)F)C(F)(F)F)N1CCC2(CC1)CN(Cc1ccc(F)cc1)C2 [Example 93, 1,1,1,3,3,3-Hexafluoropropan-2-yl 2-(4-fluorobenzyl)-2,7-diazaspiro[3,5]nonane-7-carboxylate]	### (### is ≥75%)	### (### is ≥75%)	–	–
O=C(OC(C(F)(F)F)C(F)(F)F)N1CCC2(CC1)CN(Cc1cccc(N3CCCC3)c1)C2 [Example 94, 1,1,1,3,3,3-Hexafluoropropan-2-yl 2-(3-(pyrrolidin-1-yl)benzyl)-2,7-diazaspiro[3.5]nonane-7-carboxylate]	### (### is ≥75%)	### (### is ≥75%)	–	–
O=C(OC(C(F)(F)F)C(F)(F)F)N1CCC2(CC1)CN(Cc1ccccc1C(F)(F)F)C2 [Example 95, 1,1,1,3,3,3-Hexafluoropropan-2-yl 2-(2-(trifluoromethyl)benzyl)-2,7-diazaspiro[3.5]nonane-7-carboxylate]	### (### is ≥75%)	### (### is ≥75%)	–	–
O=C(OC(C(F)(F)F)C(F)(F)F)N1CCC2(CC1)CN(Cc1ccccc1N1CCOCC1)C2 [Example 96, 1,1,1,3,3,3-Hexafluoropropan-2-yl 2-(2-morpholinobenzyl)-2,7-diazaspiro[3,5]nonane-7-carboxylate]	### (### is ≥75%)	### (### is ≥75%)	–	–
O=C(OC(C(F)(F)F)C(F)(F)F)N1CCC2(CC1)CN(Cc1cccc(F)c1)C2 [Example 97, 1,1,1,3,3,3-Hexafluoropropan-2-yl 2-(3-fluorobenzyl)-2,7-diazaspiro[3.5]nonane-7-carboxylate]	### (### is ≥75%)	### (### is ≥75%)	–	–
O=C(OC(C(F)(F)F)C(F)(F)F)N1CCC2(CC1)CN(Cc1ccccc1F)C2 [Example 98, 1,1,1,3,3,3-Hexafluoropropan-2-yl 2-(2-fluorobenzyl)-2,7-diazaspiro[3.5]nonane-7-carboxylate]	### (### is ≥75%)	### (### is ≥75%)	–	–
O=C(OC(C(F)(F)F)C(F)(F)F)N1CCC2(CC1)CN(Cc1ccc(C(F)(F)F)cc1N1CCCC1)C2 [Example 151, 1,1,1,3,3,3-Hexafluoropropan-2-yl 2-(2-(pyrrolidin-1-yl)-4-(trifluoromethyl)benzyl)-2,7-diazaspiro[3.5]nonane-7-carboxylate]	### (### is ≥75%)	### (### is ≥75%)	–	–
CC(=O)N1CCCc2cccc(CN3CCC4(CC3)CN(C(=O)OC(C(F)(F)F)C(F)(F)F)C4)c21 [Example 152, 1,1,1,3,3,3-Hexafluoropropan-2-yl 7-((1-acetyl-1,2,3,4-tetrahydroquinolin-8-yl)methyl)-2,7-diazaspiro[3.5]nonane-2-carboxylate]	### (### is ≥75%)	### (### is ≥75%)	–	–
CS(=O)(=O)N1CCC2(CCN(c3ccccc3CN3CCN(C(=O)OC(C(F)(F)F)C(F)(F)F)CC3)C2)C1 (centres unmarked) [Example 165, 1,1,1,3,3,3-Hexafluoropropan-2-yl 4-(2-(7-(methylsulfonyl)-2,7-diazaspiro[4.4]nonan-2-yl)benzyl)piperazine-1-carboxylate]	### (### is ≥75%)	# (# is ≤25%)	–	–
CC(=O)N1CCC2(CCN(c3ccccc3CN3CCN(C(=O)OC(C(F)(F)F)C(F)(F)F)CC3)C2)C1 (centres unmarked) [Example 166, 1,1,1,3,3,3-Hexafluoropropan-2-yl 4-(2-(7-acetyl-2,7-diazaspiro[4.4]nonan-2-yl)benzyl)piperazine-1-carboxylate]	### (### is ≥75%)	# (# is ≤25%)	–	–
CS(=O)(=O)N1CC2(CCN(c3ccccc3CN3CCN(C(=O)OC(C(F)(F)F)C(F)(F)F)CC3)C2)C1 [Example 167, 1,1,1,3,3,3-Hexafluoropropan-2-yl 4-(2-(2-(methylsulfonyl)-2,6-diazaspiro[3,4]octan-6-yl)benzyl)piperazine-1-carboxylate]	### (### is ≥75%)	# (# is ≤25%)	–	–
